{"source": "paper PMC3489043", "about": "(Nature neuroscience, 2011)", "key": {"[1]": {"biological_target": "human α7 AChR (Homo sapiens, UniProt P36544)", "sequence (P36544 23-502)": "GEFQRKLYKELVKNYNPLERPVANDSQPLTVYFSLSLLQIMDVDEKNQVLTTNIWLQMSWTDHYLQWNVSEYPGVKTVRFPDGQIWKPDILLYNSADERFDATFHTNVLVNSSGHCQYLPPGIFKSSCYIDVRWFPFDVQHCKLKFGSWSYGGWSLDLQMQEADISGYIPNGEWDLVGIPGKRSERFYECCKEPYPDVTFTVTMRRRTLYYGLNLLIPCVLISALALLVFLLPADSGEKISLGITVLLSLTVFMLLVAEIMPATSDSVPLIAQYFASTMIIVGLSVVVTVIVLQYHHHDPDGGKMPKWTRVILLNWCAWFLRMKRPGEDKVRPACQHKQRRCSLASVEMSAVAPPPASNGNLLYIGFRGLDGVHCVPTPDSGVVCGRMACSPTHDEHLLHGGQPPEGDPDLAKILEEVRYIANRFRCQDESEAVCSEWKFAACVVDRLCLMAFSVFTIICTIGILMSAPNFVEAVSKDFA", "type": "binding"}, "[2]": {"test_system": "mutant α7 AChRs", "type": "binding, human"}, "[3]": {"test_system": "α7 AChRs", "conditions": "cited from earlier work"}, "[4]": {"test_system": "muscle AChRs", "conditions": "cited from earlier work"}, "[5]": {"test_system": "α7–AChBP chimera", "test": "Radiolabeled ligand binding to the α7–AChBP chimera", "set-up": "species or system human / Lymnaea stagnalis"}, "[6]": {"biological_target": "mutant α7 AChRs (Homo sapiens, UniProt P36544, W77F)", "sequence (P36544 23-502 W77F)": "as the sequence (P36544 23-502) above, with W55F counted along it", "type": "binding"}}, "note": "Read-outs that look alike come from different tables or passages of the source."}
{"compound": "CC(=O)OCC[N+](C)(C)C", "note": "[ACh, acetylcholine]", "values": [{"measurement": "cooperativity of ACh binding", "setting": "[1]; steady-state binding", "result": "highly cooperative"}, {"measurement": "change of agonist affinity for the α7 AChR", "setting": "[2]; substitutions at Arg182, Glu185, Glu181 (loop C) and Gln37, steady-state binding", "result": "increased affinity"}]}
{"compound": "C[N+](C)(C)CCO", "note": "[choline]", "values": [{"measurement": "efficacy at α7 AChRs", "setting": "[3]", "result": "high efficacy"}, {"measurement": "efficacy at muscle AChRs", "setting": "[4]", "result": "low efficacy"}]}
{"compound": "Clc1ccc(C2CC3CCC2N3)cn1", "note": "(stereo not shown) [epibatidine]", "values": [{"measurement": "binding of radiolabeled ligand to the α7–AChBP chimera", "setting": "[5]; radiolabeled ligand, Supplementary Fig. 2", "result": "bound"}, {"measurement": "epibatidine binding to the α7 AChR", "setting": "[1]", "result": "cooperatively and with high affinity"}, {"measurement": "cooperativity of epibatidine binding", "setting": "[6]", "result": "markedly reduced cooperativity"}, {"measurement": "cooperativity of epibatidine binding", "setting": "[2]", "result": "maintained cooperativity"}, {"measurement": "increase of the apparent dissociation constant by phenylalanine substitutions", "setting": "[2]", "result": "4- to 2,200 fold"}]}
{"compound": "α-bungarotoxin", "values": [{"measurement": "binding of radiolabeled ligand to the α7–AChBP chimera", "setting": "[5]", "result": "bound"}]}
